pIC50: −log10 of the molar value. Like-named read-outs stand apart in the source and are kept apart here.
Target: T1, human B-Raf (Homo sapiens, UniProt P15056)
T1 construct: Flag; GST; made in house; host or cells: Sf9 insect cells (B-Raf); E. coli (MEK1-GST)
Assay: B-Raf Kinase to MEK1 ELISA
Type: biochemical
Conditions: for inhibition at 10 µM: read-out: % Inhib./10 uM
How it was run: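 Flag/GST-tagged human B-Raf (Sf9, ~20 ng/point) phosphorylates non-active GST-MEK1 (50 nM final) with ATP and MgCl2 in MOPS pH 7.2 buffer, 60 min at RT. Product is captured on anti-GST plates; MEK1 pSer217/221 is read by phospho-antibody plus europium conjugate (DELFIA).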

[1] = median, cpd concentrations from 10 μM to 30 nM in half log dilutions, read-out: Median IC50

T1 sequence (P15056 whole entry): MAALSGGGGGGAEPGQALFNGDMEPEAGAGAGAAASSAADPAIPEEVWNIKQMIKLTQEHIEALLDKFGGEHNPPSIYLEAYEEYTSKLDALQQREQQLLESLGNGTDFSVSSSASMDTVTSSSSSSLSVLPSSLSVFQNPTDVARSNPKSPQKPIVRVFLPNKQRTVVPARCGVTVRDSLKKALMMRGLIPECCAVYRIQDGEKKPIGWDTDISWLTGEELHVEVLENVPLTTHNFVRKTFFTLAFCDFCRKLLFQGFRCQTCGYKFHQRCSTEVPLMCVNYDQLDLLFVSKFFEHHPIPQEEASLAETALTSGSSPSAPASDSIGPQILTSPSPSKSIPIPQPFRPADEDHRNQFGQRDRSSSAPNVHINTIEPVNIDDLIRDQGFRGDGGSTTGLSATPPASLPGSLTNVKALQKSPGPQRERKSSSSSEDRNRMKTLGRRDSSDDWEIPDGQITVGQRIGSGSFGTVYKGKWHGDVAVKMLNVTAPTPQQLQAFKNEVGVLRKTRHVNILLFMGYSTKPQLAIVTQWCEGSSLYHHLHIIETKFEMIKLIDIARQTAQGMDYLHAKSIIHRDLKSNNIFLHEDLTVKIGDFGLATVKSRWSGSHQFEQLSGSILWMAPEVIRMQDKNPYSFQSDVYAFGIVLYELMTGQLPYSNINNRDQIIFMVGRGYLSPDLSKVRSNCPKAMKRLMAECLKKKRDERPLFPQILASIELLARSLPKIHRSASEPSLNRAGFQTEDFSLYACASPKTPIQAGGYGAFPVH

| Compound | pIC50 [1] | inhibition at 10 µM | pIC50 | inhibition at 10 µM (single point assay, 10 uM) | % Inhib./10 uM (single point assay, 10 uM) |
| --- | --- | --- | --- | --- | --- |
| CC(C)(C)c1cc2nccc(-c3cccc(NC(=O)c4cccc(C(F)(F)F)c4)c3)n2n1 [Example 138, N-[3-(2-tert-butylpyrazolo[1,5-a]pyrimidin-7-yl)phenyl]-3-(trifluoromethyl)benzamide] | < 5.00 | 46% | – | – | – |
| CN(C)C1CCN(c2cc3nccc(-c4cccc(NC(=O)c5cccc(C(F)(F)F)c5)c4)n3n2)C1 (centres unmarked) [Example 209, N-(3-{2-[3-(dimethylamino)pyrrolidin-1-yl]pyrazolo[1,5-a]pyrimidin-7-yl}phenyl)-3-(trifluoromethyl)benzamide] | < 5.00 | 24% | – | – | – |
| O=C(Nc1cccc(-c2ccnc3c(-c4cccc(C(F)(F)F)c4)cnn23)c1)c1cccc(C(F)(F)F)c1 [Example 291, 3-(trifluoromethyl)-N-(3-{3-[3-(trifluoromethyl)phenyl]pyrazolo[1,5-a]pyrimidin-7-yl}phenyl)benzamide] | < 5.00 | 33% | – | – | – |
| Cc1cc(-c2cccc(NC(=O)c3cccc(C(F)(F)F)c3)c2)n2nc(-c3ccncc3)cc2n1 [Example 302, N-[3-(5-methyl-2-pyridin-4-ylpyrazolo[1,5-a]pyrimidin-7-yl)phenyl]-3-(trifluoromethyl)benzamide] | 6.10 | 72% | – | – | – |
| CN(C)c1cc2nccc(-c3cccc(NC(=O)c4cccc(C(F)(F)F)c4)c3)n2n1 [Example 187, N-{3-[2-(dimethylamino)pyrazolo[1,5-a]pyrimidin-7-yl]phenyl}-3-(trifluoromethyl)benzamide] | < 5.00 | 31% | – | – | – |
| COCCCNC(=O)c1cnn2c(-c3cccc(NC(=O)c4cccc(C(F)(F)F)c4)c3)ccnc12 [Example 56, N-(3-methoxypropyl)-7-(3-{[3-(trifluoromethyl)benzoyl]amino}phenyl)pyrazolo[1,5-a]pyrimidine-3-carboxamide] | 6.00 | 60% | – | – | – |
| O=C(Nc1ccc(F)c(-c2ccnc3cc(-c4ccncc4)nn23)c1)c1cccc(C(F)(F)F)c1 [Example 317, N-[4-fluoro-3-(2-pyridin-4-ylpyrazolo[1,5-a]pyrimidin-7-yl)phenyl]-3-(trifluoromethyl)benzamide] | 7.37 | 100% | – | – | – |
| O=C(Nc1cccc(-c2ccnc3c(-c4ccncc4)cnn23)c1)Nc1ccc(F)c(C(F)(F)F)c1 [Example 193, N-[4-fluoro-3-(trifluoromethyl)phenyl]-N′-[3-(3-pyridin-4-ylpyrazolo[1,5-a]pyrimidin-7-yl)phenyl]urea] | 6.30 | 79% | – | – | – |
| CN1CCN(CCCC#Cc2cnn3c(-c4cccc(NC(=O)c5cccc(C(F)(F)F)c5)c4)ccnc23)CC1 [Example 279, N-(3-{3-[5-(4-methylpiperazin-1-yl)pent-1-yn-1-yl]pyrazolo[1,5-a]pyrimidin-7-yl}phenyl)-3-(trifluoromethyl)benzamide] | – | – | 6.07 | – | – |
| Cc1ccccc1-c1cnn2c(-c3cccc(NC(=O)c4cccc(C(F)(F)F)c4)c3)ccnc12 [Example 305, N-{3-[3-(2-methylphenyl)pyrazolo[1,5-a]pyrimidin-7-yl]phenyl}-3-(trifluoromethyl)benzamide] | – | 54% | 6.05 | – | – |
| CCOC(=O)c1cnn2c(-c3cccc(NC(=O)c4nccc5ccccc45)c3)ccnc12 [Example 218, ethyl7-{3-[(isoquinolin-1-ylcarbonyl)amino]phenyl}pyrazolo[1,5-a]pyrimidine-3-carboxylate] | 5.35 | 73% | – | – | – |
| COc1ccc(-c2cc3nccc(-c4cccc(NC(=O)c5cccc(C(F)(F)F)c5)c4)n3n2)cc1 [Example 136, N-{3-[2-(4-methoxyphenyl)pyrazolo[1,5-a]pyrimidin-7-yl]phenyl}-3-(trifluoromethyl)benzamide] | – | 35% | < 5.00 | – | – |
| Cc1ccc(C(=O)Nc2cccc(-c3ccnc4cc(-c5ccc(Cl)cc5)nn34)c2)cc1C(F)(F)F [Example 118, N-{3-[2-(4-chlorophenyl)pyrazolo[1,5-a]pyrimidin-7-yl]phenyl}-4-methyl-3-(trifluoromethyl)benzamide] | < 5.00 | 22% | – | – | – |
| CCOC(=O)c1cc2nccc(-c3cccc(NC(=O)c4cccc(C(F)(F)F)c4)c3)n2n1 [Example 185, ethyl 7-(3-{[3-(trifluoromethyl)benzoyl]amino}phenyl)pyrazolo[1,5-a]pyrimidine-2-carboxylate] | < 5.00 | 6% | – | – | – |
| CCOC(=O)c1cnn2c(-c3cccc(NC(=O)c4cc(F)cc(C(F)(F)F)c4)c3)ccnc12 [Example 75, ethyl 7-(3-{[3-fluoro-5-(trifluoromethyl)benzoyl]amino}phenyl)pyrazolo[1,5-a]pyrimidine-3-carboxylate] | 5.18 | 58% | – | – | – |
| O=C(Nc1cccc(-c2ccnc3cc(-c4ccncc4)nn23)c1)Nc1ccc(Cl)c(C(F)(F)F)c1 [Example 133, N-[4-chloro-3-(trifluoromethyl)phenyl]-N′-[3-(2-pyridin-4-ylpyrazolo[1,5-a]pyrimidin-7-yl)phenyl]urea] | 7.52 | – | – | – | 98% |
| O=C(Nc1cccc(-c2ccnc3c(-c4ccnc(Cl)c4)cnn23)c1)c1cccc(C(F)(F)F)c1 [Example 301, N-{3-[3-(2-chloropyridin-4-yl)pyrazolo[1,5-a]pyrimidin-7-yl]phenyl}-3-(trifluoromethyl)benzamide] | – | 75% | 5.76 | – | – |
| O=C(Nc1cccc(-c2ccnc3c(-c4cn[nH]c4)cnn23)c1)c1cccc(C(F)(F)F)c1 [Example 275, N-{3-[3-(1H-pyrazol-4-yl)pyrazolo[1,5-a]pyrimidin-7-yl]phenyl}-3-(trifluoromethyl)benzamide] | – | 89% | 7.08 | – | – |
| N#Cc1c(N2CCNCC2)nn2c(-c3cccc(NC(=O)c4cccc(C(F)(F)F)c4)c3)ccnc12 [Example 62, N-[3-(3-cyano-2-piperazin-1-ylpyrazolo[1,5-a]pyrimidin-7-yl)phenyl]-3-(trifluoromethyl)benzamide] | – | 54% | – | – | – |
| CN(C)CCNc1cc(-c2cc3nccc(-c4cccc(NC(=O)c5cccc(C(F)(F)F)c5)c4)n3n2)ccn1 [Example 266, N-{3-[2-(2-{[2-(dimethylamino)ethyl]amino}pyridin-4-yl)pyrazolo[1,5-a]pyrimidin-7-yl]phenyl}-3-(trifluoromethyl)benzamide] | – | – | 7.27 | – | 100% |

Continued, in another order:

| pIC50 [1] | inhibition at 10 µM | pIC50 | inhibition at 10 µM (single point assay, 10 uM) | Compound | % Inhib./10 uM (single point assay, 10 uM) |
| --- | --- | --- | --- | --- | --- |
| < 5.00 | 0% | – | – | CCOC(=O)c1cnn2c(-c3cccc(NC(=O)Cc4cccc(F)c4)c3)ccnc12 [Example 93, ethyl 7-(3-{[(3-fluorophenyl)acetyl]amino}phenyl)pyrazolo[1,5-a]pyrimidine-3-carboxylate] | – |
| < 5.00 | 42% | – | – | N#Cc1cccc(-c2cnn3c(-c4cccc(NC(=O)c5cccc(C(F)(F)F)c5)c4)ccnc23)c1 [Example 294, N-{3-[3-(3-cyanophenyl)pyrazolo[1,5-a]pyrimidin-7-yl]phenyl}-3-(trifluoromethyl)benzamide] | – |
| – | 96% | 7.15 | – | Cc1ccc(C(=O)Nc2cccc(-c3ccnc4c(-c5cccnc5)cnn34)c2)cc1C(F)(F)F [Example 169, 4-methyl-N-[3-(3-pyridin-3-ylpyrazolo[1,5-a]pyrimidin-7-yl)phenyl]-3-(trifluoromethyl)benzamide] | – |
| – | 54% | – | – | CCCNC(=O)c1cnn2c(-c3cccc(NC(=O)c4cccc(C(F)(F)F)c4)c3)ccnc12 [Example 46, N-propyl-7-(3-{[3-(trifluoromethyl)benzoyl]amino}phenyl)pyrazolo[1,5-a]pyrimidine-3-carboxamide] | – |
| < 5.00 | 4% | – | – | CCOC(=O)c1c(C)nn2c(-c3cccc(NC(=O)c4ccc(C)c(C(F)(F)F)c4)c3)ccnc12 [Example 64, ethyl 2-methyl-7-(3-{[4-methyl-3-(trifluoromethyl)benzoyl]amino}phenyl)pyrazolo[1,5-a]pyrimidine-3-carboxylate] | – |
| < 5.00 | 0% | – | – | O=C(Nc1cccc(-c2ccnc3cc(N4CCN(Cc5ccccc5)CC4)nn23)c1)c1cccc(C(F)(F)F)c1 [Example 207, N-{3-[2-(4-benzylpiperazin-1-yl)pyrazolo[1,5-a]pyrimidin-7-yl]phenyl}-3-(trifluoromethyl)benzamide] | – |
| < 5.00 | 30% | – | – | CCOC(=O)c1cnn2c(-c3cccc(NC(=O)Nc4cc(Cl)cc(Cl)c4)c3)ccnc12 [Example 17, ethyl 7-[3-({[(3,5-dichlorophenyl)amino]carbonyl}amino)phenyl]pyrazolo[1,5-a]pyrimidine-3-carboxylate] | – |
| 6.52 | – | – | 93% | CCOC(=O)c1cnn2c(-c3cccc(NC(=O)Nc4ccc(Cl)c(C(F)(F)F)c4)c3)ccnc12 [Example 11, ethyl 7-{3-[({[4-chloro-3-(trifluoromethyl)phenyl]amino}carbonyl)amino]phenyl}pyrazolo[1,5-a]pyrimidine-3-carboxylate] | – |
| 7.18 | 98% | – | – | O=C(Nc1cccc(-c2ccnc3cc(-c4ccnc(NCCCn5ccnc5)c4)nn23)c1)c1cccc(C(F)(F)F)c1 [Example 262, N-{3-[2-(2-{[3-(1H-imidazol-1-yl)propyl]amino}pyridin-4-yl)pyrazolo[1,5-a]pyrimidin-7-yl]phenyl}-3-(trifluoromethyl)benzamide] | – |
| – | 42% | – | – | O=C1CCN(c2cc3nccc(-c4cccc(NC(=O)c5cccc(C(F)(F)F)c5)c4)n3n2)CC1 [Example 251, N-{3-[2-(4-oxopiperidin-1-yl)pyrazolo[1,5-a]pyrimidin-7-yl]phenyl}-3-(trifluoromethyl)benzamide] | – |

— patent publication US20070219186A1, “Pyrazolo[1,5-A]pyrimidine derivatives and methods of use thereof” (priority 2006, published 2007)
